How the values were obtained:
[1] = reported by Mikhlina et al; cited from earlier work
[2] = tested on: gastric emptying of a test meal; assay: Effect on Gastric Emptying of a Test Meal in Rats; type: in vivo; conditions: rat

Nc1ccc(C(=O)NC2CN3CCC2CC3)cc1 (centres unmarked) [4-amino-N-(1-azabicyclo[2.2.2]oct-3-yl)-benzamide]
reported activities [1]: hypotensive, narcotic and ganglionic stimulation and blocking activities

Cc1nc(COc2cc(N)c(Cl)cc2C(=O)N[C@H]2CN3CCC2CC3)cs1 [Example I (R)-isomer, (R)-(+)-4-Amino-N-(1-azabicyclo[2,2,2]oct-3-yl)-5-chloro-2-[(2-methyl-4-thiazolyl)methoxy]benzamide]
Gastric emptying: % change in meal emptied ([2]; 9.0 mg/kg IP): 34%

Cc1nc(COc2cc(N)c(Cl)cc2C(=O)N[C@@H]2CN3CCC2CC3)cs1 [Example I (S)-isomer, S-(-)-4-Amino-N-(1-azabicyclo[2,2,2]oct-3-yl)-5-chloro-2-[(2-methyl-4-thiazolyl)methoxy]benzamide]
Gastric emptying: % change in meal emptied ([2]; 9.0 mg/kg IP): 43%

Cc1nc(COc2cc(N)c(Cl)cc2C(=O)NC2CN3CCC2CC3)cs1 (centres unmarked) [Example I, 4-Amino-N-(1-azabicyclo[2,2,2]oct-3-yl)-5-chloro-2-[(2-methylthiazol-4-yl)methoxy]benzamide]
Gastric emptying: % change in meal emptied ([2]; 9.0 mg/kg IP): 36%

Nc1cc(OCc2ccccc2)c(C(=O)NC2CN3CCC2CC3)cc1Cl (centres unmarked) [Example V, 4-Amino-N-(1-azabicyclo[2.2.2]oct-3-yl)-5-chloro-2-(phenylmethoxy)benzamide]
Gastric emptying: % change in meal emptied ([2]; 1.0 mg/kg IP): 61%

Nc1cc(OCc2cccc(Cl)c2)c(C(=O)NC2CN3CCC2CC3)cc1Cl (centres unmarked) [Example VI, 4-Amino-N-(1-azabicyclo[2.2.2]oct-3-yl)-5-chloro-2-[(3-chlorophenyl)methoxy]benzamide]
Gastric emptying: % change in meal emptied ([2]; 1.0 mg/kg IP): 52%

Nc1cc(OCc2cccc(I)c2)c(C(=O)NC2CN3CCC2CC3)cc1Cl (centres unmarked) [Example VII, 4-Amino-N-(1-azabicyclo[2.2.2]oct-3-yl)-5-chloro-2-[(3-iodophenyl)methoxy]benzamide]
Gastric emptying: % change in meal emptied ([2]; 0.10 mg/kg IP): 28%

O=C(NC1CN2CCC1CC2)c1ccccc1 (centres unmarked) [N-(1-azabicyclo[2.2.2]oct-3-yl)benzamide]
reported activities [1]: hypotensive, narcotic and ganglionic stimulation and blocking activities

From US5236931A, “2-substituted benzamide and benzoate derivatives of 3-aminoquinuclidine and 3-quinuclidinol” (priority 1992, dated 1993)
